Data on twelve molecules can be found in patent US20090143375A1, “Tricyclic Lactam Derivatives, Their Manufacture and Use as Pharmaceutical Agents” (F. HOFFMANN-LA ROCHE AG, priority 2005, published 2009).

Molecules are shown by their SMILES.

One assay concerns HCT 116 cells. In words: CellTiter-Glo assay in HCT 116 cells (antiproliferative activity). It is filed as cell-based. To be noted: 120 h, HCT 116 cells (human colon carcinoma), 5 days incubation. As for the experimental part: The CellTiter-Glo™ Luminescent Cell Viability Assay (Promega) is a homogeneous method of determining the number of viable cells in culture based on quantitation of the ATP present, which signals the presence of metabolically active cells.
HCT 116 cells (human colon carcinoma, ATCC-No. CCl-247) were cultivated in RPMI 1640 medium with GlutaMAX™ I (Invitrogen, Cat-No. 61870-010), 2.5% Fetal Calf Serum (FCS, Sigma Cat-No. F4135 (FBS)); 100 Units/ml penicillin/100 μg/ml streptomycin (=Pen/Strep from Invitrogen Cat. No. 15140). For the assay the cells were seeded in 384 well plates, 1000 cells per well, in the same medium. The next day the test compounds were added in various concentrations ranging from 30 μM to 0.0015 μM (10 concentrations, 1:3 diluted). After 5 days the CellTiter-Glo™ assay was done according to the instructions of the manufacturer (CellTiter-Glo™ Luminescent Cell Viability Assay, from Promega). In brief: the cell-plate was equilibrated to room temperature for approximately 30 minutes and than the CellTiter-Glo™ reagent was added. The contents were carefully mixed for 15 minutes to induce cell lysis. After 45 minutes the luminescent signal was measured in Victor 2, (scanning multiwell spectrophotometer, Wallac).
1st. day: • Medium: RPMI 1640 with GlutaMAX™ I (Invitrogen, Cat-Nr. 61870), 5% FCS (Sigma Cat.-No. F4135), Pen/Strep (Invitrogen, Cat No. 15140). • HCT116 (ATCC-No. CCl-247): 1000 cells in 60 μl per well of 384 well plate (Greiner 781098, μClear-plate white) • After seeding incubate plates 24 h at 37° C., 5% CO2 2nd. Day: Induction (Treatment with Compounds, 10 Concentrations):
In order to achieve a final concentration of 30 μM as highest concentration 3.5 μl of 10 mM compound stock solution were added directly to 163 μl media. Then step e) of the dilution procedure described below, was followed.
In order to achieve the second highest to the lowest concentrations, a serial dilution with dilution steps of 1:3 was followed according to the procedure (a-e) as described here below: • a) for the second highest concentration add 10 μl of 10 mM stock solution of compound to 20 μl dimethylsulfoxide (DMSO) • b) dilute 8×1:3 (always 10 μl to 20 μl DMSO) in this DMSO dilution row (results in 9 wells with concentrations from 3333.3 μM to 0.51 μM) • c) dilute each concentration 1:47.6 (3.5 μl compound dilution to 163 μl media) • e) add 10 μl of every concentration to 60 μl media in the cell plate resulting in final concentration of DMSO: 0.3% in every well and resulting in 10 final concentration of compounds ranging from 30 μM to 0.0015 μM. • Each compound is tested in triplicate. • Incubate 120 h (5 days) at 37° C., 5% CO2
• Add 30 μl CellTiter-Glo™ Reagent (prepared from CellTiter-Glo™ Buffer and CellTiter-Glo™ Substrate (lyophilized) purchased from Promega) per well, • shake 15 minutes at room temperature • incubate further 45 minutes at room temperature without shaking
• Victor 2 scanning multiwell spectrophotometer (Wallac), Luminescence mode (0.5 sec/read, 477 nm) • Determine IC50 using a non-linear curve fit (XLfit software (ID Business Solution Ltd., Guilford, Surrey, UK))
As usually defined, the IC50 is the concentration that inhibits the measured activity by half. For `COCCN1C(=O)C(C)(C)c2cc3nc(-c4cc(C)[nH]n4)[nH]c3cc21` [Example 1, 5-(2-Methoxy-ethyl)-7,7-dimethyl-2-(5-methyl-1H-pyrazol-3-yl)-5,7-dihydro-3H-imidazo[4,5-f]indol-6-one], the IC50 lay within 100 to 5000 nM.

`Cc1cc(-c2nc3cc4c(cc3[nH]2)C(C)(C)C(=O)N4CC#N)n[nH]1` [Example 2, [7,7-Dimethyl-2-(5-methyl-1H-pyrazol-3-yl)-6-oxo-6,7-dihydro-1H-imidazo[4,5-f]indol-5-yl]-acetonitrile] came in with an IC50 of 100 to 5000 nM.

The molecule `C=CCN1C(=O)C(C)(C)c2cc3nc(-c4cc(C)[nH]n4)[nH]c3cc21` [Example 3, 5-Allyl-7,7-dimethyl-2-(5-methyl-1H-pyrazol-3-yl)-5,7-dihydro-3H-imidazo[4,5-f]indol-6-one] gave an IC50 of 100 to 5000 nM.

Molecule `CC1(C)C(=O)N(CCCN2CCOCC2)c2cc3nc(-c4cc(C(F)(F)F)n[nH]4)[nH]c3cc21` [Example 4, 7,7-Dimethyl-5-(3-morpholin-4-yl-propyl)-2-(5-trifluoromethyl-2H-pyrazol-3-yl)-5,7-dihydro-1H-imidazo[4,5-f]indol-6-one] gave an IC50 of 100 to 5000 nM.

Consider `Cc1cc(-c2nc3cc4c(cc3[nH]2)C(C)(C)C(=O)N4CCCN2CCOCC2)[nH]n1` [Example 5, 7,7-Dimethyl-2-(5-methyl-2H-pyrazol-3-yl)-5-(3-morpholin-4-yl-propyl)-5,7-dihydro-1H-imidazo[4,5-f]indol-6-one], for which the IC50 fell in the range of 100 to 5000 nM.

On to `CCCc1cc(-c2nc3cc4c(cc3[nH]2)C(C)(C)C(=O)N4CCCN2CCOCC2)[nH]n1` [Example 6, 7,7-Dimethyl-5-(3-morpholin-4-yl-propyl)-2-(5-propyl-2H-pyrazol-3-yl)-5,7-dihydro-1H-imidazo[4,5-f]indol-6-one], for which the IC50 was 1240 nM.

With `Cc1cc(-c2nc3cc4c(cc3[nH]2)N(CC(=O)N2CCOCC2)C(=O)C4(C)C)n[nH]1` [Example 9, 7,7-Dimethyl-2-(5-methyl-1H-pyrazol-3-yl)-5-(2-morpholin-4-yl-2-oxo-ethyl)-5,7-dihydro-3H-imidazo[4,5-f]indol-6-one], the IC50 worked out at 5830 nM.

In turn, `Cc1cc(-c2nc3cc4c(cc3[nH]2)N(CC(=O)Nc2ccc(F)cc2)C(=O)C4(C)C)n[nH]1` [Example 10, 2-[7,7-Dimethyl-2-(5-methyl-1H-pyrazol-3-yl)-6-oxo-6,7-dihydro-3H-imidazo[4,5-f]indol-5-yl]-N-(4-fluoro-phenyl)-acetamide] showed an IC50 of 100 to 5000 nM.

`COc1cc(CNC(=O)CN2C(=O)C(C)(C)c3cc4nc(-c5cc(C)[nH]n5)[nH]c4cc32)cc(OC)c1` [Example 11, N-(3,5-Dimethoxy-benzyl)-2-[7,7-dimethyl-2-(5-methyl-1H-pyrazol-3-yl)-6-oxo-6,7-dihydro-3H-imidazo[4,5-f]indol-5-yl]-acetamide] came in with an IC50 of 100 to 5000 nM.

`Cc1cc(-c2nc3cc4c(cc3[nH]2)N(CC(=O)NCc2ccc(F)cc2)C(=O)C4(C)C)n[nH]1` [Example 12, 2-[7,7-Dimethyl-2-(5-methyl-1H-pyrazol-3-yl)-6-oxo-6,7-dihydro-3H-imidazo[4,5-f]indol-5-yl]-N-(4-fluoro-benzyl)-acetamide]: the IC50 was 100 to 5000 nM.

`CCN(CC)CCN1C(=O)C(C)(C)c2cc3nc(-c4cc(C)[nH]n4)[nH]c3cc21` [Example 13, 5-(2-Diethylamino-ethyl)-7,7-dimethyl-2-(5-methyl-1H-pyrazol-3-yl)-5,7-dihydro-3H-imidazo[4,5-f]indol-6-one] yielded an IC50 of 100 to 5000 nM.

On to `Cc1cc(-c2nc3cc4c(cc3[nH]2)C(C)(C)C(=O)N4CCN)n[nH]1` [Example 14, 5-(2-Amino-ethyl)-7,7-dimethyl-2-(5-methyl-1H-pyrazol-3-yl)-5,7-dihydro-1H-imidazo[4,5-f]indol-6-one], for which the IC50 lay within 5000 to 15000 nM.

For the next assay, the target named is T1, Aurora A kinase (Homo sapiens, UniProt O14965).
T1 sequence (O14965 1-403): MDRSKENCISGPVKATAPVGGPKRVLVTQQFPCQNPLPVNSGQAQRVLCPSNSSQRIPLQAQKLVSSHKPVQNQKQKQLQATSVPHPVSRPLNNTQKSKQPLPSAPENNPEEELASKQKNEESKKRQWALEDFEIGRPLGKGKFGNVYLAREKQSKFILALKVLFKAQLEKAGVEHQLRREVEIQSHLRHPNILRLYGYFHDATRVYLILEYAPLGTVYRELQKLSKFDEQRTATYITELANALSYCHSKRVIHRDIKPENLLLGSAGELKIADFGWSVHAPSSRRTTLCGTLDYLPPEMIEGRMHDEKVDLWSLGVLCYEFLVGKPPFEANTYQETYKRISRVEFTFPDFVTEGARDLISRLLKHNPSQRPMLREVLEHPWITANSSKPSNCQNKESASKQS
In words: IC50 determination for inhibitors of Aurora A kinase (ELISA, GST-Histone H3 substrate). To be noted: mutant Aur A kinase, 30 μM ATP, 40 minutes; read-out: IC50 Aurora A kinase inhibition. It is filed as biochemical. As for the experimental part: IC50 Determination for Inhibitors of Aurora A Kinase Assay Principle
Aurora A is a serine threonine kinase involved in spindle assembly and chromosome segregation.
The assay is a typically ELISA-type assay where substrate (GST-Histone H3) is coupled to the assay-plate and is phosphorylated by the kinase. Phosphorylation is detected by a mouse anti-Phosphopeptid mAb and an HRP-labeled anti-mouse pAb. The assay is validated for IC50-determination.
Kinase activities were measured by Enzyme-Linked Immunosorbent Assay (ELISA): Maxisorp 384-well plates (Nunc) were coated with recombinant fusion protein comprising residues 1-15 of HistoneH3 fused to the N-terminus of Glutathione-S-Transferase. Plates were then blocked with a solution of 1 mg/mL I-block (Tropix cat# T2015—highly purified form of casein) in phosphate-buffered saline. […] After washing, substrate phosphorylation was detected by addition of anti-phospho-Histone H3 (Ser 10) 6G3 mAb (Cell Signaling cat #9706) and sheep anti-mouse pAb-HRP (Amersham cat# NA931V), followed by colorimetric development with TMB (3,3′,5,5′-tetramethylbenzidine from Kirkegaard & Perry Laboratories). After readout of the absorbance, IC50 values were calculated using a non-linear curve fit (XLfit software (ID Business Solution Ltd., Guilford, Surrey, UK))
Background: ELISA stands for enzyme-linked immunosorbent assay.
With `COCCN1C(=O)C(C)(C)c2cc3nc(-c4cc(C)[nH]n4)[nH]c3cc21` [Example 1, 5-(2-Methoxy-ethyl)-7,7-dimethyl-2-(5-methyl-1H-pyrazol-3-yl)-5,7-dihydro-3H-imidazo[4,5-f]indol-6-one], the IC50 was 80 nM.

Regarding `Cc1cc(-c2nc3cc4c(cc3[nH]2)N(CC(=O)Nc2ccc(F)cc2)C(=O)C4(C)C)n[nH]1` [Example 10, 2-[7,7-Dimethyl-2-(5-methyl-1H-pyrazol-3-yl)-6-oxo-6,7-dihydro-3H-imidazo[4,5-f]indol-5-yl]-N-(4-fluoro-phenyl)-acetamide], the IC50 was determined as 40 nM.
